Laboratory results published in US8114902B2, “2-aminobutanol compound and use thereof for medical purposes” (Mitsubishi Tanabe Pharma Corporation, priority 2006, dated 2012).

Columns and labels:
[1] = test system: mouse peripheral blood lymphocyte count; experiment: Evaluation of mouse peripheral blood lymphocyte count-decreasing effect; assay type: in vivo, male BALB/cAnNCrj mice; conditions: intraperitoneal administration in 20% cyclodextrin, blood collected 24 hr after administration, flow cytometer count
Description: Evaluation of Mouse Peripheral Blood Lymphocyte Count-Decreasing Effect
The compound of the present invention was dissolved or suspended in 20% cyclodextrin (manufactured by NIHON SHOKUHIN KAKO CO., LTD.), and intraperitoneally administered to 7- to 10-week-old male BALB/cAnNCrj mice (Charles River Laboratories Japan, Inc.) at a dose of 0.001-10 mg/kg body weight. At 24 hr after the administration of the compound of the present invention, the peripheral blood (about 0.3 ml) was collected using a tuberculin syringe (manufactured by TERUMO CORPORATION) treated with heparin sodium (manufactured by NovoNordisk) from the postcava of the mice under ether anesthesia. The blood (0.1 ml) was hemolyzed in an automatic hemolysis treatment apparatus (TQ-Prep, manufactured by Beckman Instruments•Coulter) and, using a Flow Cytometer (CYTOMICS FC 500, manufactured by Beckman Instruments•Coulter), the lymphocytes were counted by a gating method using the forward and side scattering of the laser beam as an index and Flow-Count™ Fluorospheres (manufactured by Beckman Instruments•Coulter), which are the standard particles in a known number, as the internal standard. Taking the lymphocyte count of the vehicle group as 100%, the dose necessary for decreasing the lymphocyte count thereof to 50% was calculated and taken as ED50 value (mg/kg body weight).

[2] = Action on heart rate in rat telemetry; assay type: in vivo, male Sprague-Dawley (IGS) rats; conditions: oral administration in 0.5% hydroxypropylmethylcellulose, up to the dose of 10 mg/kg body weight, heart rate measured from 24 hr before to 72 hr after administration
Description: Action on Heart Rate in Rat Telemetry
Male Sprague-Dawley (IGS) rats were anesthetized by intraperitoneal administration of Nembutal (manufactured by DAINIPPON PHARMACEUTICAL CO., LTD.), and a pressure sensor connected to a telemetric transmitter (TL11M2-C50-PTX, manufactured by Data Sciences International) was inserted into the abdominal artery, whereby the transmitter was subcutaneously set in the abdomen. The data of blood pressure and heart rate were recorded by an analysis software (Dataquest A.R.T., Data Sciences International) via a receiver (RPC-1, manufactured by Data Sciences International). After confirmation of the recovery of the circadian rhythm of the heart rate after elapse of 10 days to 2 weeks postoperation, the rats were subjected to the experiment. The compound of the present invention was suspended in 0.5% hydroxypropylmethylcellulose (manufactured by Shin-Etsu Chemical Co., Ltd.) and administered orally. The heart rate was measured from 24 hr before administration to 72 hr after administration.

Row | SMILES | mouse peripheral blood lymphocyte count-decreasing effect, ED50 value (dose necessary for decreasing the lymphocyte count to 50% of vehicle group) [1] | influence on heart rate in rats (telemetry) [2]
1 | Cc1ccc(Sc2ccc(-c3ccc(CCC(N)(CO)CO)c(Cl)c3)c(F)c2)cc1 [Example 18, 2-amino-2-{2-[3-chloro-2′-fluoro-4′-(4-methylphenylthio)biphenyl-4-yl]ethyl}propane-1,3-diol] | 0.04 mg/kg body weight | –
2 | Cc1ccc(Sc2ccc(-c3ccc(CCC(N)(CO)CO)cc3)c(F)c2)cc1 [Example 4, 2-amino-2-{2-[2′-fluoro-4′-(4-methylphenylthio)biphenyl-4-yl]ethyl}propane-1,3-diol] | 0.05 mg/kg body weight | did not influence the heart rate
